Reference: patent US20040037799A1, “Malodor suppression by fragrance composition” (priority 2002, published 2004)

Columns and labels:
[1] = Air diffusion coefficient of perfume materials; assay type: physicochemical
[2] = Malodor coverage by individual fragrance materials (Table 1)

Molecule	Air Diffusion Coefficient [1] [cm²/s]	Average Coverage ([2]; scale not defined)	Average Coverage ([2]; tested only at 5 and 38 C)
c1ccc(CCOC2CCCCC2)cc1	0.0477	2.3	
C=CCOC(=O)CCC1CCCCC1 [ALLYL CYCLOHEXYL PROPIONATE]	0.0486	2.6	
COC(Cc1ccccc1)OC [PADMA]	0.0571	3.3	
CCCCCCC(C=O)=Cc1ccccc1 [HEXYL CINNAMIC ALDEHYDE]	0.0445	2.3	
C=CCc1ccc(OC)cc1 [METHYL CHAVICOL]	0.0591	2.3	
CCc1ccc(CC(C)(C)C=O)cc1 [FLORAZONE]	0.0499	3.6	
CCCCCC1(C)CCC(C)(C)C1=O (stereo not shown) [VELOUTONE]	0.0459	3.0	
O=Cc1ccccc1 [BENZALDEHYDE]	0.075		
CO[C@]1(C)CC[C@@]23C[C@@H]1C(C)(C)[C@@H]2CC[C@H]3C [CEDRAMBER]		2.3	
CC(C)C1CCC(CO)CC1 (stereo not shown) [MAYOL]	0.0545	2.3	
CC/C(=C\CC1CC=C(C)C1(C)C)CO (stereo not shown) [SANDRANOL]	0.0444	3.3	
CC(=O)OC/C=C(\C)CCC=C(C)C [GERANYL ACETATE]	0.0478	1.0	
C=C1C2CCC(C2)C1(C)C (stereo not shown)	0.0613		3.0
C[C@@H]1CC[C@H]2C(C)(C)[C@H]3C[C@@]12CC[C@@]3(C)O [CEDROL LIQUID 10%, CEDROL]	0.0425	3.3	
CC(C=O)Cc1ccc(C(C)(C)C)cc1 (stereo not shown) [LILIAL]	0.047	2.6	
METHYL NAPTHYL KETONE [METHYL NAPTHYL KETONE 10%]	0.0552	2.0	
CC(=O)O[C@@H]1C[C@H]2CC[C@]1(C)C2(C)C (racemic) [ISO BORNYL ACETATE]	0.0492	2.6	
CC1CC(C)(c2ccccc2)CO1 (stereo not shown) [RHUBAFURAN]		2.6	
CCCCCCCCCCC=CC#N	0.0432	3.0	

Molecule	Air Diffusion Coefficient [1] [cm²/s]	Average Coverage ([2]; scale not defined)	Average Coverage ([2]; tested only at 5 and 38 C)
C=CCOC(=O)CCCCCC [ALLYL HEPTOATE (C-7), ALLYL HEPTOATE]	0.0523	2.6	
CC(C)OCCc1ccccc1 [PETIOLE]		2.6	
CC1CCC(C(C)(C)O)CC1 (stereo not shown) [DIHYDRO TERPINEOL]	0.0547	2.0	
CCCCCCCCCCCC#N [CLONAL]	0.0466	3.0	
CC(C)CC1CC(C)(O)CCO1 (stereo not shown) [FLOROL]	0.0521	3.0	
CC(C)CCOCCc1ccccc1 [ANTHER]	0.0486	2.6	
CC(=O)OCC=C(C)C [PRENYL ACETATE]	0.0649	1.0	
CC(=O)c1cc2c(cc1C)C(C)(C)C(C)CC2(C)C (stereo not shown) [TONALID 10%]		2.0	
OCCc1ccccc1 [PHENYL ETHYL ALCOHOL]	0.0676	4.3	
CC(=O)C1(C)CC2=C(CCCC2(C)C)CC1C (stereo not shown) [ISO E SUPER]	0.0418	3.3	
CCOC(=O)CC(C)=O [ETHYL ACETOACETATE]	0.0554	1.6	
METHYL IONONE GAMMA	0.0453	3.3	
CCC(C)(O)CCCC(C)C (stereo not shown) [TETRAHYDRO LINAILOOL]	0.0533	2.6	
CC(C)=CCCC(C)C=O (stereo not shown) [MELONAL]	0.0579	2.0	
CCCCCC1CCCC1=O (stereo not shown) [DELPHONE, FIRMENICH]	0.0546	4.0	
OCCC1CCCCC1 [CYCLOHEXYL ETHANOL]	0.0629	2.0	
CC1=CCC2C3CC(C2C1)C1(C3)OC1C (stereo not shown) [RHUBOFIX]		3.0	
COc1ccc2ccccc2c1 [NEROLIN YARA YARA 10%]		2.6	
